Series [1] has as its system P. falciparum 3D7. In words: 3-day SYBR Green I growth inhibition assay (GIA), strain 3D7. The class given is cell-based, Plasmodium falciparum. The settings on record: 3-day SYBR Green I GIA, drug-sensitive strain 3D7, read-out: Antiplasmodial activity EC50, 3D7. The essentials: (§1)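 Sorbitol-synchronized ring-stage parasites at 1% parasitemia and 2% hematocrit, cultured 72 h with compounds at 1% DMSO final. Growth read by SYBR Green I staining. EC50 from curve fitting.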

In series [2] the test system is P. falciparum Dd2. In words: 3-day SYBR Green I GIA, multidrug-resistant strain Dd2. The series is classed as cell-based, Plasmodium falciparum. The settings on record: Plasmodium falciparum, 72 h; 3-day SYBR Green I GIA, multidrug-resistant strain Dd2; read-out: Antiplasmodial activity EC50, Dd2. The essentials: as §1
A short description of series [3]: In vitro cytotoxicity analysis (CellTiter-Glo), HepG2. The settings on record: human, HepG2 cells. The procedure:
(§2) In all, 1% DMSO was used as a negative control. The inhibition of each drug was normalized to that of the DMSO control. EC50 was calculated by GraphPad Prism. Three independent assays with two technical replicates each time were conducted in this experiment.
(Cellular ATP, detected with luciferase, serves as a proxy for viable cell number.)

For series [4], the system named is HepG2 cells. The description is as above. The procedure: as §2
A short description of series [5]: In vitro cytotoxicity analysis (CellTiter-Glo), 293T. The settings on record: human, 293T cells, Cytotoxicity EC50, 293T, 72 h, CellTiter-Glo. The procedure:
as §2

For series [6], the system named is 293T cells. Described as above. The procedure:
as §2

For series [7], the system named is P. falciparum GB4. Nature of the series: 3-day SYBR Green I GIA, strain GB4. The series is classed as cell-based. The settings on record: Plasmodium falciparum; GB4 resistant to chloroquine; read-out: Resistant isolates EC50, GB4. The procedure: A 3-day SYBR Green I inhibition EC50 assay was performed as described previously. Briefly, highly synchronized ring-stage parasites by 5% sorbitol (1% parasitemia and 2% hematocrit) were incubated in a 96-well plate with compounds in a total volume of 200 μL. […] The parasites were cultured for 72 h before SYBR Green I staining as described above. The EC50 was calculated by GraphPad Prism. DHA was used as a positive control, and the final concentration of DMSO was 1%.

A short description of series [8]: Liver microsome metabolism assay, rat. The class given is in vitro ADME. The settings on record: rat liver microsomes. The procedure:
(§3) Liver microsomes (0.5 mg/mL) were purchased from Corning. Ketanserin was selected as a positive control. The tested compounds were first dissolved in DMSO to a concentration of 10 mM and then diluted to 0.5 mM with acetonitrile. Liver microsome buffer was used to dilute the compounds to a working concentration of 1.5 µM, 30 µL of which was mixed with 15 µL of 6 mM NADPH at 37 °C. At 0, 5, 15, 30, and 45 min after incubation, 135 µL of acetonitrile was added to quench the reaction. The mixture was shaken on a vortex mixer (IKA, MTS 2/4) for 10 min at 600 rpm/min and then centrifuged at 5594× g for 15 min (Thermo Multifuge×3R). The supernatant was diluted 1:1 into distilled water, and analyzed by LC-MS/MS.
A general note: Liver microsomes are vesicles of endoplasmic reticulum, rich in cytochrome P450 enzymes.

Series [9] in a line: Liver microsome metabolism assay, human. The class given is in vitro ADME. The procedure:
as §3

For series [10], the system named is P. falciparum NF54 stage II gametocytes. Nature of the series: In vitro gametocyte inhibition assay, stage II. The series is classed as cell-based, Plasmodium falciparum. The settings on record: NF54 luciferase line, 48 h exposure. The procedure:
To test the activities of JX21108 against different gametocyte stages, the P. falciparum producer NF54^p230p-luc was utilized, as described previously. […] Luciferase intensity based on luciferase expression was detected as described above. The EC50 was calculated by GraphPad Prism. DMSO (1%) was used as a negative control.

The test system of series [11] is 3D7^HDAC1-glmS. Nature of the series: Sensitivity of transgenic parasites to JX21108, 3D7^HDAC1-glmS. The series is classed as cell-based, Plasmodium falciparum. The procedure: Highly synchronized schizont-stage parasites were prepared and treated as described above, with adjustments. […] After washing, parasites were cultured in new CM for another 68 h. Parasite growth was monitored by SYBR Green I staining, as described above. The EC50 was calculated by GraphPad Prism.

Series [12] has as its target T1, hHDAC3 (Homo sapiens, UniProt O15379).
T1 construct: purchased BPS Bioscience 50003
Nature of the series: Human HDAC inhibition assay, hHDAC3. The settings on record: performed only once; read-out: Inhibitory Activity IC50, hHDAC3. The class given is biochemical. The procedure:
(§4) SAHA and suramin were used as positive controls. The tested compounds were dissolved into 20 mM stock in 100% DMSO. […] Ten microliters of trypsin and Ac-peptide substrate/Tris buffer solution were added to start the reaction, followed by a 1-h incubation at room temperature for HDACs 1–3 and 6. Ten microliters of Ac-peptide substrate/Tris buffer solution was added to start the reaction, followed by a 4-h incubation at room temperature and a further 2-h incubation with trypsin solution for HDAC8 and Sirt 2. […] This experiment was performed only once.

In series [13] the target is T2, hHDAC6 (Homo sapiens, UniProt Q9UBN7).
T2 construct: purchased BPS Bioscience 50046
Nature of the series: Human HDAC inhibition assay, hHDAC6. The class given is biochemical. The settings on record: performed only once; read-out: Inhibitory Activity IC50, hHDAC6. The procedure: as §4

Series [14] concerns P. falciparum 3D7. Nature of the series: Stage-specific parasite inhibition assay. The class given is cell-based, Plasmodium falciparum. The settings on record: 40 nM. The procedure: To analyze the stage-specific parasite inhibition, highly synchronized parasites were cultured in 24-well plates with a starting parasitemia of 1% at a hematocrit of 2%. After 12 h of culture with the tested compounds at a concentration of 40 nM, parasites were washed three times to remove the compounds, and parasitemia was diluted 1:40 by new RBCs into CM for another 4 days of culture. DMSO was used as a blank control. Parasitemia was counted by flow cytometry. Flow cytometry was conducted as described previously. Briefly, the parasite-infected RBCs were fixed in 4% formaldehyde/0.015% glutaraldehyde for 30 min at room temperature and incubated with 500 μL of a SYBR green staining solution (Invitrogen) (1:5000) in 1× PBS (phosphate-buffered saline, pH 7.4, without calcium and magnesium). Cells were washed three times with 1× PBS prior to flow-cytometry analysis on a MoFloAstrios EQ instrument (BECKMAN COULTER). RBCs (5 × 10^5) were measured (excitation 488 nm; emission detection FL1 513 ± 26 nm), and a value of 5 on FL1 (SYBR Green intensity) was applied as a threshold to identify (gate) the infected RBCs (iRBCs). Acquired data were processed using the FlowJo software (v.10.0.5).

Each structure is given as a SMILES string. Where “and” joins values, the source holds several entries; their conditions need not be identical. Equal entries are not always repeated. Where two headings read alike, the source gives them in different places.

Here are results for one molecule from article PMC7733455, “A novel multistage antiplasmodial inhibitor targeting Plasmodium falciparum histone deacetylase 1” (Cell Discovery, 2020).

Broadly, the EC50 is the concentration that produces a half-maximal response. One may read the IC50 as the point on the concentration scale where inhibition reaches its midpoint.

T2 sequence (Q9UBN7 whole entry): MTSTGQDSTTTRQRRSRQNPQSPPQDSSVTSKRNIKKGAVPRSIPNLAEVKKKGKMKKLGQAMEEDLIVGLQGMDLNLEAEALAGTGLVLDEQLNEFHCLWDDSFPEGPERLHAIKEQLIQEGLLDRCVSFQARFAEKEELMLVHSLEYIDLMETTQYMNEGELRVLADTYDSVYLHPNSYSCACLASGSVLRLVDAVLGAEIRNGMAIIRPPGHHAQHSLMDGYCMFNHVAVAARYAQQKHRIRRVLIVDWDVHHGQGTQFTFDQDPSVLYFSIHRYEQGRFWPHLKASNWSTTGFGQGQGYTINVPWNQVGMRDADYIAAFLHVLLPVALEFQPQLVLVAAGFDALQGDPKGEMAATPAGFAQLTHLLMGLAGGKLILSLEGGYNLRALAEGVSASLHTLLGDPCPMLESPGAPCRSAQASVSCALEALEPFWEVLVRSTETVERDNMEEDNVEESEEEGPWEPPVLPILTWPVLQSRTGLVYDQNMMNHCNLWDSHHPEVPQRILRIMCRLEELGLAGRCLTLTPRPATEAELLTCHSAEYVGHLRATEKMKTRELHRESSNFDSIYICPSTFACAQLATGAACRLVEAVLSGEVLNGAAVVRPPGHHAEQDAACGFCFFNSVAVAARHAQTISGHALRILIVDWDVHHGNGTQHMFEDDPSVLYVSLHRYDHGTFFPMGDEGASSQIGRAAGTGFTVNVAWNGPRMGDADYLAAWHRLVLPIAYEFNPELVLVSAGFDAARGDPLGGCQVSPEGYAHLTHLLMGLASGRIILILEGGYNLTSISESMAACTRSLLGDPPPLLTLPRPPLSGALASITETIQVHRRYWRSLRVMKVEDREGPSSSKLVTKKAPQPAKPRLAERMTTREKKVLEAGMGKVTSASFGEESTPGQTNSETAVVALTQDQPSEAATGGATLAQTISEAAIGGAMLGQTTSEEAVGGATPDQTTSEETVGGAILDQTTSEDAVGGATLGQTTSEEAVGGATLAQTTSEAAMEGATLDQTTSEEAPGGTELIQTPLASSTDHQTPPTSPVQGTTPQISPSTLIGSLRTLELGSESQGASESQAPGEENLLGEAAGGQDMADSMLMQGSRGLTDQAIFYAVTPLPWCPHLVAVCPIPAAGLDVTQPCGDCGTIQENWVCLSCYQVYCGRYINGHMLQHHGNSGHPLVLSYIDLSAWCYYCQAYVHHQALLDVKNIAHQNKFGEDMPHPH
T1 sequence (O15379 whole entry): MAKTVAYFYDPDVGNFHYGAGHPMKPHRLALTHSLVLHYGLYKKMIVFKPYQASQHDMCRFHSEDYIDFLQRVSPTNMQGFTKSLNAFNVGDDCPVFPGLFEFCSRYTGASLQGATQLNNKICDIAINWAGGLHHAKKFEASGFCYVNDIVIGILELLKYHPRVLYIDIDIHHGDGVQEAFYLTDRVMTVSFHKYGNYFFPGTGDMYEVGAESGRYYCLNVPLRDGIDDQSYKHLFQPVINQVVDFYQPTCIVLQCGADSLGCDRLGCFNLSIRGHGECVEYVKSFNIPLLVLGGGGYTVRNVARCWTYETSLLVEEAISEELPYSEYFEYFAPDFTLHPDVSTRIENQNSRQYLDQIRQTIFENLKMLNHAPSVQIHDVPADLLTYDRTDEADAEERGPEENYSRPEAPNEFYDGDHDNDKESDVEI
T1 sequence (Q9Y618 395-489 partner limits assumed): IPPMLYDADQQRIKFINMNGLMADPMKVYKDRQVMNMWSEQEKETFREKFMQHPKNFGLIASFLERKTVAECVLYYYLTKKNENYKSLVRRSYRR

Take `Cl.Cn1cc(CN2CCC3(CCN(c4ncc(C(=O)NO)cn4)C3)C2)c2cc(C#N)ccc21` (centres unmarked) [JX21108]: the EC50 came to 3.57 ± 0.06 nM in series [1]; 3.6 nM in series [1] (Plasmodium falciparum, 3D7, 72 h); 4 nM in series [2]; 2.4 ± 0.6 nM in series [7]; 38.8 ± 17.8 nM in series [10]; 38.8 ± 17.8 nM in series [10] (Plasmodium falciparum, NF54, 48 h). Also, the EC50 in series [11] (Plasmodium falciparum, 3D7, 4 h, read-out: EC50 for 3D7^HDAC1-glmS) turned out to be 20.5 ± 6.95 nM. Further, the EC50 at 72 h was 3820 ± 145 nM in series [3] and 1190 ± 233 nM in [5]. Also, the “Selectivity index for HepG2 (EC50 HepG2/EC50 3D7)” value in series [4] was ~ 1060 and 1069 and 1060. In addition, the “Selectivity index for 293T (EC50 293T/EC50 3D7)” value in series [6] was ~ 331 and 334 and 331. In addition, the CLint scaled at 1 µM in series [8] (read-out: CL in liver microsomes) turned out to be 196 mL/min/kg. For the same molecule, the half-life at 1 µM in [8] (read-out: T1/2 in liver microsomes) worked out at 0.211 h; in series [9] (human liver microsomes, read-out: T1/2 in liver microsomes) it was 8.68 h. Also, the “CL in liver microsomes” value in series [9] was determined as 3.34 mL/min/kg. In addition, the “shift in sensitivity on PfHDAC1 KD” value in series [11] (3D7^HDAC1-glmS vs 3D7^HDAC1-TY1) came out at 5.5 fold. The IC50 in [12] amounted to 19 nM; in [13], 66 nM. Further, in [14] (12-h treatment), the “stage dependence of parasite killing (parasitemia at 4 dpi)” value was “treatment at the schizont stage was more active in parasite killing than that at the ring and trophozoite stages”. For the same molecule, the “asexual development of parasites to the next cycle” value in series [14] (12-h treatment at ring, trophozoite and schizont stages) is recorded as “strongly block the asexual development of parasites to the next cycle”.
